{"source": "PubChem BioAssay AID2060499", "about": "(Molecular Pharmacology Branch, DTP, NCI, 2025)", "test_system": "777334-354-R2-J4-PDC tumor spheroids with HUVEC/MSC, viability", "assay": "Anticancer human tumor 777334-354-R2-J4-PDC patient-derived pancreatic adenocarcinoma cell line growth inhibition [GQUAD]", "details": "for IC50: curve of first compound; for viability, T/C: stronger effect = lower value", "source_text": "DNA G-quadruplex Stabilizer Agents in Combinations in Complex Spheroids\nA high-throughput screen of multi-cell type tumor spheroids was designed to identify active combinations of DNA G-quadruplex stabilizer agents and targeted small molecules. Complex spheroids include a stromal component modeled by human endothelial cells (HUVEC) and fibroblasts modeled by human mesenchymal stem cells (MSCs). The concentration ranges selected for each drug and investigational agent were based upon clinically achievable concentrations if the clinical Cmax of the agent was known.\nCompounds. The drugs and investigational agents: pidnarulex (CX-5461; NSC782164), APTO-253 (NSC789042), BRACO-19 (NSC847499), peposertib (NSC802822), ceralasertib (NSC780249), elimusertib (NSC800525), camonsertib (NSC841442), AZD-1390 (NSC803789), olaparib (NSC753686), talazoparib (NSC767125), ART-558 (NSC835418), sotorasib (NSC818433), MRTX-1133 (NSC836407), SN-38 (NSC673596), topotecan (NSC609699), etoposide (NSC141540), doxorubicin (NSC123127), gemcitabine (NSC613327), 5-fluorouracil (NSC19893), paclitaxel (NSC125973), vemurafenib (NSC761431), panobinostat (NSC761190), R-306465 (JNJ-16241199; NSC773264), adavosertib (NSC754352), TP-3654 (NSC805149), carboplatin (NSC241240), KSQ-4279 (NSC840948), and staurosporine (NSC755774) were obtained from the National Cancer Institute (NCI) Developmental Therapeutics Program Chemical Repository (34). The FDA-approved anticancer drug set is available from the NCI Developmental Therapeutics Program. […] The stock solutions were prepared in dimethyl sulfoxide (DMSO, Sigma-Aldrich, St. Louis, MO, cat. D2650) at 800-fold the tested concentration and stored at -70 degrees C prior to their use. All drugs and investigational agents were tested over a range starting from a high concentration at or near the clinical Cmax and decreasing in half-log increments. If the clinical Cmax for an agent had not been determined, the highest concentration tested was 10 microM.\n2.3 Cell Culture. All cells were maintained in an incubator at 37 degrees C and 5% CO2 with 95% humidity. The PDC lines were cultured according to standard operating procedures established by the NCI PDMR. All PDCs were thawed and cultured in Matrigel-coated flasks prepared with a working solution of 1X Ham's F-12 nutrient mix, without supplementation (Invitrogen, cat. 11765054), 100 U/mL penicillin-streptomycin (Invitrogen, cat. 15140122), and 2.5% Matrigel (Corning Inc., cat. 354248) for the first three passages. The 857933-349-R-J2-PDC line was cultured in 6C/Colon 1B media, which includes advanced DMEM/F-12 (Thermo Fisher Scientific, cat. 12634028), 10 mM HEPES (Thermo Fisher Scientific, cat. 15630080), 1X GlutaMAX supplement (Thermo Fisher Scientific, cat. 35050061), 0.1 mg/mL primocin (InvivoGen, cat. ant-pm-2), 10% defined fetal bovine serum, heat inactivated (HyClone Laboratories Inc., cat. SH30070.03HI), 50% L-WRN conditioned media (ATCC, cat. CRL-3276), 1.25 mM N-Acetyl-L-cysteine (Sigma-Aldrich, cat. A9165), 10 mM nicotinamide (Sigma-Aldrich, cat. N0636), 1X B-27 supplement (Thermo Fisher Scientific, cat. 17504044), 1X N-2 supplement (Thermo Fisher Scientific, cat. 17502048), 10 microM Y-27632 dihydrochloride (Tocris Bioscience, cat. 1254), and 50 ng/mL human EGF recombinant protein (Thermo Fisher Scientific, cat. PHG0311). The 485176-168-R4-J1-PDC line was cultured in Panc media, which includes all 6C/Colon 1B media components plus 100 ng/mL human FGF-10 (Thermo Fisher Scientific, cat. 100-26), 500 nM SB-431542 (Selleckchem, cat. S1067), and gastrin (Tocris, cat. 3006).\n[…]"}
{"compound": "COc1cccc2c1C(=O)c1c(O)c3c(c(O)c1C2=O)CC(O)(C(=O)CO)CC3OC1CC(N)C(O)C(C)O1", "note": "(configuration not stated) + CN(C)c1ccc(Nc2c3ccc(NC(=O)CCN4CCCC4)cc3nc3cc(NC(=O)CCN4CCCC4)ccc23)cc1;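 further: spheroids exposed to compounds for 7 days before readout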", "values": [{"measurement": "IC50", "setting": "second compound 0.0316 µM", "result": 909, "unit": "nM"}, {"measurement": "IC50", "setting": "second compound 0.1 µM", "result": 841, "unit": "nM"}, {"measurement": "IC50", "setting": "second compound 0.316 µM", "result": 783, "unit": "nM"}, {"measurement": "IC50", "setting": "second compound 1 µM", "result": 679, "unit": "nM"}, {"measurement": "IC50", "setting": "second compound 3.16 µM", "result": 633, "unit": "nM"}, {"measurement": "IC50", "setting": "second compound 10 µM", "result": 858, "unit": "nM"}, {"measurement": "viability, T/C", "setting": "second compound 0.0316 µM, first compound 0.0316 µM", "result": 109, "unit": "%"}, {"measurement": "viability, T/C", "setting": "second compound 0.0316 µM, first compound 0.1 µM", "result": 84.4, "unit": "%"}, {"measurement": "viability, T/C", "setting": "second compound 0.0316 µM, first compound 0.316 µM", "result": 74.2, "unit": "%"}, {"measurement": "viability, T/C", "setting": "second compound 0.0316 µM, first compound 1 µM", "result": 49.3, "unit": "%"}, {"measurement": "viability, T/C", "setting": "second compound 0.0316 µM, first compound 3.16 µM", "result": 25.2, "unit": "%"}, {"measurement": "viability, T/C", "setting": "second compound 0.0316 µM, first compound 10 µM", "result": 9.52, "unit": "%"}, {"measurement": "viability, T/C", "setting": "second compound 0.1 µM, first compound 0.0316 µM", "result": 100, "unit": "%"}, {"measurement": "viability, T/C", "setting": "second compound 0.1 µM, first compound 0.1 µM", "result": 85.3, "unit": "%"}, {"measurement": "viability, T/C", "setting": "second compound 0.1 µM, first compound 0.316 µM", "result": 71.2, "unit": "%"}, {"measurement": "viability, T/C", "setting": "second compound 0.1 µM, first compound 1 µM", "result": 47.1, "unit": "%"}, {"measurement": "viability, T/C", "setting": "second compound 0.1 µM, first compound 3.16 µM", "result": 24.5, "unit": "%"}, {"measurement": "viability, T/C", "setting": "second compound 0.1 µM, first compound 10 µM", "result": 13.8, "unit": "%"}, {"measurement": "viability, T/C", "setting": "second compound 0.316 µM, first compound 0.0316 µM", "result": 107, "unit": "%"}, {"measurement": "viability, T/C", "setting": "second compound 0.316 µM, first compound 0.1 µM", "result": 78.9, "unit": "%"}, {"measurement": "viability, T/C", "setting": "second compound 0.316 µM, first compound 0.316 µM", "result": 70.1, "unit": "%"}, {"measurement": "viability, T/C", "setting": "second compound 0.316 µM, first compound 1 µM", "result": 47.9, "unit": "%"}, {"measurement": "viability, T/C", "setting": "second compound 0.316 µM, first compound 3.16 µM", "result": 23.6, "unit": "%"}, {"measurement": "viability, T/C", "setting": "second compound 0.316 µM, first compound 10 µM", "result": 14, "unit": "%"}, {"measurement": "viability, T/C", "setting": "second compound 1 µM, first compound 0.0316 µM", "result": 89.7, "unit": "%"}, {"measurement": "viability, T/C", "setting": "second compound 1 µM, first compound 0.1 µM", "result": 74.7, "unit": "%"}, {"measurement": "viability, T/C", "setting": "second compound 1 µM, first compound 0.316 µM", "result": 66.5, "unit": "%"}, {"measurement": "viability, T/C", "setting": "second compound 1 µM, first compound 1 µM", "result": 42.9, "unit": "%"}, {"measurement": "viability, T/C", "setting": "second compound 1 µM, first compound 3.16 µM", "result": 23.2, "unit": "%"}, {"measurement": "viability, T/C", "setting": "second compound 1 µM, first compound 10 µM", "result": 12.2, "unit": "%"}, {"measurement": "viability, T/C", "setting": "second compound 3.16 µM, first compound 0.0316 µM", "result": 83.7, "unit": "%"}, {"measurement": "viability, T/C", "setting": "second compound 3.16 µM, first compound 0.1 µM", "result": 76.5, "unit": "%"}, {"measurement": "viability, T/C", "setting": "second compound 3.16 µM, first compound 0.316 µM", "result": 55, "unit": "%"}, {"measurement": "viability, T/C", "setting": "second compound 3.16 µM, first compound 1 µM", "result": 48.4, "unit": "%"}, {"measurement": "viability, T/C", "setting": "second compound 3.16 µM, first compound 3.16 µM", "result": 25, "unit": "%"}, {"measurement": "viability, T/C", "setting": "second compound 3.16 µM, first compound 10 µM", "result": 15.2, "unit": "%"}, {"measurement": "viability, T/C", "setting": "second compound 10 µM, first compound 0.0316 µM", "result": 77, "unit": "%"}, {"measurement": "viability, T/C", "setting": "second compound 10 µM, first compound 0.1 µM", "result": 78.2, "unit": "%"}, {"measurement": "viability, T/C", "setting": "second compound 10 µM, first compound 0.316 µM", "result": 64, "unit": "%"}, {"measurement": "viability, T/C", "setting": "second compound 10 µM, first compound 1 µM", "result": 50, "unit": "%"}, {"measurement": "viability, T/C", "setting": "second compound 10 µM, first compound 3.16 µM", "result": 22.3, "unit": "%"}, {"measurement": "viability, T/C", "setting": "second compound 10 µM, first compound 10 µM", "result": 14, "unit": "%"}]}
